Experimental data from US7998987B2, “Inhibitors of c-Met and uses thereof” (Vertex Pharmaceuticals Incorporated, priority 2005, dated 2011).
pKi: −log10 of the molar value.

Target: c-Met (Homo sapiens, UniProt P08581)
Experiment: Ki determination for the inhibition of c-Met kinase activity (standard coupled enzyme system)
Format: biochemical
Conditions: coupled enzyme system, 200 μM ATP, 80 nM c-Met, 30° C.; read-out: c-Met Ki
Method: Ki Determination for the Inhibition of c-Met
Reactions were carried out in a solution containing 100 mM HEPES (pH 7.5), 10 mM MgCl2, 25 mM NaCl, 300 μM NADH, 1 mM DTT, and 1.5% DMSO. Final substrate concentrations in the assay were 200 μM ATP (Sigma Chemicals, St Louis, Mo.) and 10 μM polyGluTyr (Sigma Chemical Company, St. Louis). Reactions were carried out at 30° C. and 80 nM c-Met. Final concentrations of the components of the coupled enzyme system were 2.5 mM phosphoenolpyruvate, 300 μM NADH, 30 μg/ml pyruvate kinase and 10 μg/ml lactate dehydrogenase.
An assay stock buffer solution was prepared containing all of the reagents listed above with the exception of ATP and a test compound of the present invention. […] The reaction was initiated by the addition of 20 μL of ATP (final concentration 200 μM). Rates of reaction were obtained using a Molecular Devices Spectramax plate reader (Sunnyvale, Calif.) over 10 minutes at 30° C. The Ki values were determined from the rate data as a function of inhibitor concentration.

c-Met, sequence (P08581 25-1390): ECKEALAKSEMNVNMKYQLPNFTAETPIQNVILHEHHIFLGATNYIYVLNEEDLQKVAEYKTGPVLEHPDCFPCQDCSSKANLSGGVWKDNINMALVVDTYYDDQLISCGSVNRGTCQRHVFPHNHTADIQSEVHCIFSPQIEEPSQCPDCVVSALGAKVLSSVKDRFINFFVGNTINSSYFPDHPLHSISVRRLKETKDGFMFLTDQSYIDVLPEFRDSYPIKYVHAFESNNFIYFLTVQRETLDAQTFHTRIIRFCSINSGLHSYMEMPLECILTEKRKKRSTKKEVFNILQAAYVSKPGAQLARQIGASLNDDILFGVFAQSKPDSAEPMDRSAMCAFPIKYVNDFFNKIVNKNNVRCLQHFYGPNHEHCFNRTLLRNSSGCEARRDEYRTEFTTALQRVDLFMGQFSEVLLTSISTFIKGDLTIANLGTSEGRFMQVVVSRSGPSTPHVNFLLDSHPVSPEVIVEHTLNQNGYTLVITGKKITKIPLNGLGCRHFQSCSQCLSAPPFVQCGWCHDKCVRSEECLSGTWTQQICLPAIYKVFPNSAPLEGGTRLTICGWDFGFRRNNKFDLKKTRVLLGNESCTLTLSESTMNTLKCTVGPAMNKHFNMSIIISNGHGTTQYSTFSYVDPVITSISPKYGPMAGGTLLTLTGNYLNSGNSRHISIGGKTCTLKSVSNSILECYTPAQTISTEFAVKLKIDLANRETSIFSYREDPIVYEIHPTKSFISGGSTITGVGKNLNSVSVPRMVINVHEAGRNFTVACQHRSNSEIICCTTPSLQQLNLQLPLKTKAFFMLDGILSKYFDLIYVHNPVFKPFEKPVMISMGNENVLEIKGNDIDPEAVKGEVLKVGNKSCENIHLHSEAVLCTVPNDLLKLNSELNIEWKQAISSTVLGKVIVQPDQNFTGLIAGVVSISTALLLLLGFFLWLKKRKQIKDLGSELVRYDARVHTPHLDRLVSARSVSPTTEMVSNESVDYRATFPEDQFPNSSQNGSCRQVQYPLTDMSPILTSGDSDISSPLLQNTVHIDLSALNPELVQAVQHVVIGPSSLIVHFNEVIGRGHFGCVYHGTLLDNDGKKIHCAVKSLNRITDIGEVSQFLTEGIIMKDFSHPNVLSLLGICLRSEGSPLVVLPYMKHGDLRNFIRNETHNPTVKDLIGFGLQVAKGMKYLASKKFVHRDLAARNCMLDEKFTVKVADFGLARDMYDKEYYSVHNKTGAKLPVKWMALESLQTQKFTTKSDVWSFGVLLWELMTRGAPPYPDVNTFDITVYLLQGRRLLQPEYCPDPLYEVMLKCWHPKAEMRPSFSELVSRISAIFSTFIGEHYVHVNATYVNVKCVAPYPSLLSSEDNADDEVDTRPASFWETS

Compound	pKi
NC(=O)c1ccc(Cc2nnc3ccc(Nc4cccc(Cl)c4)nn23)cc1 [Compound 494]	5.70 to 7.00
CCOC(=O)N1CCC(Nc2ccc3nnc(Cc4ccc(O)cc4)n3n2)CC1 [Compound 306]	5.70 to 7.00
NC(=O)c1ccccc1OCc1nnc2ccc(Nc3cccc(Cl)c3)nn12 [Compound 392]	< 5.70
Oc1ccc(Cc2nnc3ccc(NC4CCOCC4)nn23)cc1 [Compound 318]	5.70 to 7.00
Oc1ccc(Cc2nnc3n2N=C(c2cccs2)CS3)cc1 [Compound 543]	> 7.00
Clc1cccc(Nc2ccc3nnc(CNc4ncccn4)n3n2)c1 [Compound 414]	< 5.70
Oc1ccc(Cc2nnc3ccc(Nc4cc(Cl)ccc4Cl)nn23)cc1 [Compound 361]	> 7.00
Clc1cccc(Nc2ccc3nnc(Cn4ccc5ncccc54)n3n2)c1 [Compound 418]	> 7.00
CC(=O)N[C@@H]1CCCC[C@H]1Nc1ccc2nnc([C@@H](C)c3ccc(O)cc3)n2n1 [Compound 450]	< 5.70
C[C@@H](c1ccc(O)cc1)c1nnc2ccc(Nc3nc4ccccc4s3)nn12 [Compound 499]	5.70 to 7.00
CCC(c1ccc(OC)cc1)c1nnc2ccc(Nc3cccc(Cl)c3)nn12 (stereo not shown) [Compound 357]	> 7.00
Oc1ccc(Cc2nnc3ccc(NC4CCNCC4)nn23)cc1 [Compound 322]	< 5.70
Clc1cccc(Nc2ccc3nnc(CCc4c[nH]cn4)n3n2)c1 [Compound 395]	< 5.70
Clc1cccc(Nc2ccc3nnc(CSc4ccccc4)n3n2)c1 [Compound 387]	< 5.70
Oc1cccc(Cc2nnc3ccc(Nc4cccc(Cl)c4)nn23)c1 [Compound 365]	5.70 to 7.00
CC1=Nn2c(Cc3ccc(O)cc3)nnc2SC1C (stereo not shown) [Compound 536]	< 5.70
Nc1ncnc2c1ccn2Cc1nnc2ccc(Nc3cccc(Cl)c3)nn12 [Compound 452]	5.70 to 7.00
CS(=O)(=O)Nc1cccc(Cc2nnc3n2N=C(c2ccccc2)CS3)c1 [Compound 526]	< 5.70
Oc1cccc(NCc2nnc3ccc(Nc4cccc(Cl)c4)nn23)c1 [Compound 338]	5.70 to 7.00
Clc1cccc(Nc2ccc3nnc(CNc4cccc(OCc5ccccc5)c4)n3n2)c1 [Compound 333]	< 5.70
Fc1cccc(OCc2nnc3ccc(Nc4cccc(Cl)c4)nn23)c1 [Compound 377]	< 5.70
O=c1ccc(Cc2nnc3ccc(Nc4cccc(Cl)c4)nn23)c[nH]1 [Compound 502]	> 7.00
Cc1ccc(OCc2nnc3ccc(Nc4cccc(Cl)c4)nn23)cn1 [Compound 372]	< 5.70
C[C@@H](c1ccc(O)cc1)c1nnc2ccc(Nc3cc(Cl)cnc3Cl)nn12 [Compound 509]	> 7.00
Oc1ccc(Cc2nnc3ccc(N4CCc5ccccc5C4)nn23)cc1 [Compound 422]	5.70 to 7.00
COc1ccc(NCc2nnc3ccc(Nc4cccc(Cl)c4)nn23)c(O)c1 [Compound 351]	5.70 to 7.00
COC(=O)c1c(O)cccc1NCc1nnc2ccc(Nc3cccc(Cl)c3)nn12 [Compound 332]	5.70 to 7.00
CC(C)C[C@H](NC(=O)OCc1ccccc1)C1=Nn2c(Cc3ccc(O)cc3)nnc2SC1 [Compound 532]	< 5.70
Clc1cccc(Nc2ccc3nnc(CNc4ccc5c(c4)OCCO5)n3n2)c1 [Compound 349]	< 5.70
Clc1cccc(Nc2ccc3nnc(CSc4ccccc4Cl)n3n2)c1 [Compound 389]	< 5.70

The remaining lines, values ahead:

pKi	Compound
5.70 to 7.00	Clc1cccc(Nc2ccc3nnc(CNc4ccc5cn[nH]c5c4)n3n2)c1 [Compound 487]
5.70 to 7.00	CCc1cccc(Nc2ccc3nnc(Cc4ccc(O)c(F)c4)n3n2)c1 [Compound 289]
5.70 to 7.00	COc1ccc(Cc2nnc3n2N=C(c2cccs2)CS3)cc1 [Compound 547]
< 5.70	COCCC(=O)N[C@H]1CCCC[C@@H]1Nc1ccc2nnc([C@@H](C)c3ccc(O)cc3)n2n1 [Compound 449]
< 5.70	Fc1ccc(OCc2nnc3ccc(Nc4cccc(Cl)c4)nn23)cc1F [Compound 378]
5.70 to 7.00	CC(=O)N[C@H]1CCCC[C@H]1Nc1ccc2nnc([C@@H](C)c3ccc(O)cc3)n2n1 [Compound 446]
< 5.70	CN(C)c1ccc(Cc2nnc3ccc(Nc4cccc(Cl)c4)nn23)cc1 [Compound 457]
5.70 to 7.00	Clc1cccc(Nc2ccc3nnc(CNc4ccc5[nH]ncc5c4)n3n2)c1 [Compound 488]
> 7.00	Oc1ccc(Cc2nnc3n2N=C(c2ccccc2)CS3)cc1 [Compound 522]
> 7.00	CC(c1ccc(O)cc1)c1nnc2n1N=C(c1ccccc1)CS2 (stereo not shown) [Compound 525]
< 5.70	Fc1ccc(SCc2nnc3ccc(Nc4cccc(Cl)c4)nn23)cc1 [Compound 390]
> 7.00	c1csc(C2=Nn3c(Cc4ccc5c(c4)OCO5)nnc3SC2)c1 [Compound 544]

Same assay, conditions: coupled enzyme system, 200 μM ATP, 10 μM polyGluTyr, 80 nM c-Met, 30° C.; read-out: c-Met Ki

Compound	pKi
Oc1ccc(Cc2nnc3ccc(Nc4cccc(C(F)(F)F)c4)nn23)cc1 [Compound 223]	> 7.00
CC(c1ccc(O)cc1)c1nnc2sc(Nc3cc(F)cc(F)c3)nn12 (stereo not shown) [Compound 133]	> 7.00
Oc1ccc(Cc2nnc3sc(NCC4CCCO4)nn23)cc1 (stereo not shown) [Compound 17]	5.70 to 7.00
N#Cc1cccc(Nc2nn3c(Cc4ccc(O)cc4)nnc3s2)c1 [Compound 18]	< 5.70
OCCc1cccc(Nc2ccc3nnc(Cc4ccc(O)cc4)n3n2)c1 [Compound 264]	> 7.00
CC(O)c1cccc(Nc2ccc3nnc(Cc4ccc(O)cc4)n3n2)c1 (stereo not shown) [Compound 255]	> 7.00
Oc1ccc(Cc2nnc3ccc(-c4ccccc4)nn23)cc1 [Compound 176]	5.70 to 7.00
CC(C)[C@@H](N)C(=O)Oc1ccc([C@H](C)c2nnc3sc(Nc4cccc(F)c4)nn23)cc1 [Compound 165]	> 7.00
Fc1cccc(Nc2ccc3nnc(Cc4ccncc4)n3n2)c1 [Compound 220]	5.70 to 7.00
C[C@@H](c1ccc(OC(=O)[C@@H](C)N)cc1)c1nnc2sc(Nc3cccc(Cl)c3)nn12 [Compound 167]	> 7.00
Oc1ccc(Cc2nnc3sc(NC4CCCCC4)nn23)cc1 [Compound 86]	5.70 to 7.00
Nc1nn2c(Cc3ccc(O)cc3)nnc2s1 [Compound 7]	5.70 to 7.00
Oc1ccc(Cc2nnc3sc(Nc4cccc(F)c4F)nn23)cc1F [Compound 99]	5.70 to 7.00
CCN1CCCC1CNc1ccc2nnc(Cc3ccc(O)cc3)n2n1 (stereo not shown) [Compound 197]	< 5.70
COc1ccc(Cc2nnc3sc(CNC(C)=O)nn23)cc1 [Compound 23]	< 5.70
COc1ccc(NC(=O)Nc2nn3c(Cc4ccc(O)cc4)nnc3s2)cc1 [Compound 115]	< 5.70
CC1CCCC(Nc2ccc3nnc(Cc4ccc(O)cc4)n3n2)C1 (stereo not shown) [Compound 284]	> 7.00
Oc1ccc(Cc2nnc3sc(Nc4cccc(F)c4)nn23)cc1 [Compound 59]	> 7.00
COc1ccc(Cc2nnc3sc(-c4ccccc4)nn23)cc1 [Compound 3]	< 5.70
Fc1ccc(Cc2nnc3sc(Nc4cccc(Cl)c4)nn23)cc1 [Compound 171]	> 7.00
COC(=O)c1cccc(Nc2nn3c(Cc4ccc(O)cc4)nnc3s2)c1 [Compound 61]	> 7.00
Oc1ccc(Cc2nnc3ccc(N[C@@H]4CCOC4)nn23)cc1 [Compound 274]	5.70 to 7.00
COc1ccc(Nc2nn3c(C(C)c4ccc(O)cc4)nnc3s2)cc1 (stereo not shown) [Compound 40]	> 7.00
COc1ccccc1Nc1nn2c(Cc3ccc(O)c(Cl)c3)nnc2s1 [Compound 31]	5.70 to 7.00
Oc1ccc(Cc2nnc3ccc(NC4CCN(Cc5ccccc5)C4)nn23)cc1 (stereo not shown) [Compound 273]	5.70 to 7.00

Next, values leading:

pKi	Compound
5.70 to 7.00	COc1ccc(Cc2nnc3ccc(Nc4cccc(CCO)c4)nn23)cc1 [Compound 266]
5.70 to 7.00	CCCC(C)Nc1ccc2nnc(Cc3ccc(O)cc3)n2n1 (stereo not shown) [Compound 280]
< 5.70	Oc1cccc(CCc2nnc3sc(Nc4cccc(F)c4)nn23)c1 [Compound 95]
5.70 to 7.00	Cc1cccc(Nc2ccc3nnc(Cc4ccc5c(c4)OCO5)n3n2)c1 [Compound 230]
> 7.00	Cc1cc(Nc2ccc3nnc(Cc4ccc(O)cc4)n3n2)ccc1Cl [Compound 215]
> 7.00	Fc1cc(F)cc(Nc2nn3c(Cc4ccc5c(c4)OCO5)nnc3s2)c1 [Compound 127]
5.70 to 7.00	Fc1cc(F)cc(Nc2ccc3nnc(Cc4ccncc4)n3n2)c1 [Compound 254]
5.70 to 7.00	OCc1cccc(Nc2ccc3nnc(Cc4ccc(O)c(Cl)c4)n3n2)c1 [Compound 261]
5.70 to 7.00	Oc1cccc(Cc2nnc3sc(Nc4cccc(F)c4Cl)nn23)c1 [Compound 110]
5.70 to 7.00	COc1cccc(N2CCN(c3ccc4nnc(Cc5ccc(O)cc5)n4n3)CC2)c1 [Compound 194]
5.70 to 7.00	Clc1cc(Cl)cc(Nc2ccc3nnc(Cc4ccncc4)n3n2)c1 [Compound 247]
> 7.00	CSc1cccc(Nc2nn3c(Cn4ccc5c(O)cccc54)nnc3s2)c1 [Compound 169]
< 5.70	O=C(Nc1cccc(Cl)c1)Nc1nn2c(Cc3ccc(O)cc3)nnc2s1 [Compound 112]
> 7.00	Oc1ccc(Cc2nnc3sc(Nc4cccc(F)c4)nn23)cc1F [Compound 108]
> 7.00	Cc1ccc(Nc2nn3c(Cc4ccc(O)cc4)nnc3s2)cc1 [Compound 60]
5.70 to 7.00	C[C@@H](Nc1ccc2nnc(Cc3ccc(O)cc3)n2n1)C1CCCCC1 [Compound 189]
< 5.70	Oc1ccc(Cc2nnc3sc(Nc4ccccn4)nn23)cc1 [Compound 10]
5.70 to 7.00	CC(O)c1cccc(Nc2ccc3nnc(Cc4ccc5c(c4)OCO5)n3n2)c1 (stereo not shown) [Compound 258]
